Measurements reported in article PMC7782793, “Hydroxamic acid-modified peptide microarrays for profiling isozyme-selective interactions and inhibition of histone deacetylases” (Nature Communications, 2021).
Where “and” joins values, the source holds several entries; their conditions need not be identical. Equal values may be shown once. Marks after values point to notes of the source that are not given here. Non-standard residues stand in square brackets, D forms with d. Residues, ends and D or L forms follow the SMILES beside them. *: point of attachment. Asu = N[C@@H](CCCCCC(=O)O)C(=O)O; NHOH = ON*

What was measured:
HDAC1 [1] = target: T1, HDAC1 (Homo sapiens, UniProt Q13547); assay: Recombinant HDAC µSPOT microarray binding assay;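 also: slides with spotted peptides incubated with six HDAC concentrations in HEPES buffer pH 7.4, spot intensities fitted by four-parameter logistic, EC50 as enzyme concentration giving half-maximal binding signal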
T1 construct: HDAC1 (full length, C-terminal His tag, C-terminal FLAG tag, BPS Bioscience, cat. #: 50051); FLAG (C); purchased BPS Bioscience 50051
Protocol: Experiments were performed twice, data were obtained with Array Analyze software (Active Motif), and data analysis and representation were performed with the GraphPad Prism 7 software. Outliers were curated manually and data were fitted to nonlinear regression [log(agonist) vs. response—variable slope (four parameters)]. […] Non-sigmoidal curves were denoted as not determined (N.D.) The pEC50 values were determined as the concentration of HDAC enzyme required for half-maximal binding signal.

HDAC2 [2] = target: T2, HDAC2 (Homo sapiens, UniProt Q92769); assay: Recombinant HDAC µSPOT microarray binding assay;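 also: Cellulose-bound peptide spots on slides incubated with six HDAC enzyme concentrations, binding intensity read, four-parameter variable-slope fit, EC50 is enzyme concentration giving half-maximal binding, in HEPES buffer pH 7.4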
T2 construct: HDAC2 (full length, C-terminal His tag, BPS Bioscience, cat. #: 50002); purchased BPS Bioscience 50002

HDAC3/NCoR2 [3] = target: T3, HDAC3/NCoR2 (Homo sapiens, UniProt O15379); assay: Recombinant HDAC µSPOT microarray binding assay;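 also: peptide spots on cellulose slides incubated with rising HDAC enzyme concentrations, imaged together, four-parameter logistic fit, EC50 is enzyme concentration giving half-maximal binding signal, two experiments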
T3 construct: HDAC3/NCoR2 (full length, C-terminal His tag, NCoR2 N-terminal GST tag); purchased BPS Bioscience 50003

HDAC8 = target: T4, HDAC8 (Homo sapiens, UniProt Q9BY41); assay: Recombinant HDAC µSPOT microarray binding assay;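 also: peptide µSPOT slides incubated with varying HDAC enzyme concentrations, imaged signal intensity fitted by four-parameter variable-slope regression, EC50 is enzyme concentration giving half-maximal binding, pH 7.4 HEPES buffer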
T4 construct: HDAC8 (full length, C-terminal His tag, BPS Bioscience, cat. #: 50008); purchased BPS Bioscience 50008
T4 sequence (Q9BY41 1-377): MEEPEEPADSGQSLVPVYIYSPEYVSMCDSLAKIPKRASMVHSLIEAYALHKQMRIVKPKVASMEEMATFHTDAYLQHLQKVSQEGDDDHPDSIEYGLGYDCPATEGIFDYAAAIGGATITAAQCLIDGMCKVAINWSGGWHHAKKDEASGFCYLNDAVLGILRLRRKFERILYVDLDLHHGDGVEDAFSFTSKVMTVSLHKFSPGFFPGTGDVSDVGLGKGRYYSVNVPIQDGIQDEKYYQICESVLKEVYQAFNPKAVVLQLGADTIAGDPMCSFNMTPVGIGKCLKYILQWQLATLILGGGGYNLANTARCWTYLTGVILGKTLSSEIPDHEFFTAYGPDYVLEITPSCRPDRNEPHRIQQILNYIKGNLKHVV

HDAC1 [4] = target: T1, HDAC1; assay: HDAC inhibition assay (fluorogenic, Ac-Leu-Gly-Lys(Ac)-AMC); type: biochemical; details: for HDAC1 dose-response data (relative enzyme activity), Fig. 6 + S. Fig. 10: duplicate columns
HDAC2 [5] = target: T2, HDAC2; assay: as above; type: biochemical; details: for HDAC2 dose-response data (relative enzyme activity), Fig. 6 + S. Fig. 10: duplicate columns
HDAC3/NCoR2 [6] = target: T3, HDAC3/NCoR2; assay: as above; type: biochemical; details: for HDAC3 dose-response data (relative enzyme activity), Fig. 6 + S. Fig. 10: duplicate columns
[7] = log[inhibitor(M)] -10,5850266520292*, whole line marked with asterisks

T1 sequence (Q13547 whole entry): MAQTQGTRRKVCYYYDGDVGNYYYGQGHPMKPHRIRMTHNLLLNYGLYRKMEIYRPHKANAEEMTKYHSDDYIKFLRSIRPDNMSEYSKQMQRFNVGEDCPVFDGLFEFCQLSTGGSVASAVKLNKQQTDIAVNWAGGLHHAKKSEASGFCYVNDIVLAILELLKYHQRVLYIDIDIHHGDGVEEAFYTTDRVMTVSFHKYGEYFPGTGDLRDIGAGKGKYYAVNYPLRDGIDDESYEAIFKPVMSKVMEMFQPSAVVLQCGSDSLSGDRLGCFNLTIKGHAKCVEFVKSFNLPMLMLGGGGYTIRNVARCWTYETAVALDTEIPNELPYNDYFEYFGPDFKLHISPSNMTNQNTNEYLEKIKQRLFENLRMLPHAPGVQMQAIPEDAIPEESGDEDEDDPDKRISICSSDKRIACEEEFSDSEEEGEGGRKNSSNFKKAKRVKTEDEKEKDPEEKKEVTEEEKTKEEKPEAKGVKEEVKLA
T2 sequence (Q92769 whole entry): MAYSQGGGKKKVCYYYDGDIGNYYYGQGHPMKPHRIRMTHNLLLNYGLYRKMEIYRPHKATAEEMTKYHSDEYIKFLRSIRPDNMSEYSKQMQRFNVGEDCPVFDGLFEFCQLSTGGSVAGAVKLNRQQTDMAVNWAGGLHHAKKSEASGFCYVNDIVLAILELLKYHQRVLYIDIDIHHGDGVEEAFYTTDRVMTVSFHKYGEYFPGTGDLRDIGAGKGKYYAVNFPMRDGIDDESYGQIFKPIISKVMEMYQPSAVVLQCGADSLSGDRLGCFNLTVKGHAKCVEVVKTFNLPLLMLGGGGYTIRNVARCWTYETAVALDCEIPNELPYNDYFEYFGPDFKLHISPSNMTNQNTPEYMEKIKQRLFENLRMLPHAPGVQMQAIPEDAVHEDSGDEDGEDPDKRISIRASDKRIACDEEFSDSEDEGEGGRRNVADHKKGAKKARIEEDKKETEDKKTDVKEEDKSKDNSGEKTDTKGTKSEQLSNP
T3 sequence (O15379 whole entry): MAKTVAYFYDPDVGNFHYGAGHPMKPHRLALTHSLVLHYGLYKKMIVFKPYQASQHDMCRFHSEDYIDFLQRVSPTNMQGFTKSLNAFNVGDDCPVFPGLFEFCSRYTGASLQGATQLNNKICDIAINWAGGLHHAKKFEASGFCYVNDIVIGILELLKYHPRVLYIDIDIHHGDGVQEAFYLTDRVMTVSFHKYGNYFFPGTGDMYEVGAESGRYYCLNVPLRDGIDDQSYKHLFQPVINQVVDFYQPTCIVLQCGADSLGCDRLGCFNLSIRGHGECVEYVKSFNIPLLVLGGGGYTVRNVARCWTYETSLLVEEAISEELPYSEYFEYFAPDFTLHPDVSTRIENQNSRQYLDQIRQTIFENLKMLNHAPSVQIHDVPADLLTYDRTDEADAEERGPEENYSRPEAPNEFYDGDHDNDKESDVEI
T3 sequence (Q9Y618 389-480 partner limits assumed): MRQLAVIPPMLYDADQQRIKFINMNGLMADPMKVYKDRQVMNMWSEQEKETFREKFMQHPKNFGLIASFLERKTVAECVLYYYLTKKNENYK

CC[C@H](C)[C@H](NC(=O)[C@H](CCC(=O)O)NC(=O)[C@H](CCCNC(=N)N)NC(=O)[C@H](CO)NC(=O)[C@@H](NC(=O)[C@@H](NC(=O)[C@@H](NC(=O)[C@H](CO)NC(=O)[C@H](CCCNC(=N)N)NC(=O)[C@H](CCCCCC(=O)NO)NC(=O)[C@H](CC(N)=O)NC(=O)[C@H](Cc1ccc(O)cc1)NC(=O)[C@H](Cc1c[nH]cn1)NC(C)=O)[C@@H](C)O)[C@@H](C)CC)[C@@H](C)O)C(=O)N[C@@H](CCC(N)=O)C(=O)N[C@H](C(=O)N[C@@H](C)C(=O)N[C@@H](Cc1c[nH]c2ccccc12)C(N)=O)[C@@H](C)O [12a] (Ac-HYN[Asu](NHOH)RSTITSREIQTAW-NH2)
EC50 (HDAC1 [1]): > 0.0251 µM | EC50 (HDAC2 [2]): > 0.0251 µM | EC50 (HDAC3/NCoR2 [3]): 0.00257 µM | EC50 (HDAC8): > 0.0251 µM | Ki (HDAC1 [4]): 0.0271 ± 0.0001 µM | HDAC1 dose-response data (relative enzyme activity), Fig. 6 + S. Fig. 10 (HDAC1 [4]; log[inhibitor(M)] -4.30103): 0.9347 and 0.662 | HDAC1 dose-response data (relative enzyme activity), Fig. 6 + S. Fig. 10 (HDAC1 [4]; log[inhibitor(M)] -5): 2.038 and 1.878 | HDAC1 dose-response data (relative enzyme activity), Fig. 6 + S. Fig. 10 (HDAC1 [4]; log[inhibitor(M)] -5.69897): 7.98 and 7.034 | HDAC1 dose-response data (relative enzyme activity), Fig. 6 + S. Fig. 10 (HDAC1 [4]; log[inhibitor(M)] -6.39794): 27.0557 and 22.8999 | HDAC1 dose-response data (relative enzyme activity), Fig. 6 + S. Fig. 10 (HDAC1 [4]; log[inhibitor(M)] -7.09691): 60.7171 and 55.9643 | HDAC1 dose-response data (relative enzyme activity), Fig. 6 + S. Fig. 10 (HDAC1 [4]; log[inhibitor(M)] -7.79588): 89.3741 and 84.8138 | HDAC1 dose-response data (relative enzyme activity), Fig. 6 + S. Fig. 10 (HDAC1 [4]; log[inhibitor(M)] -8.49485): 97.3199 and 95.6638 | HDAC1 dose-response data (relative enzyme activity), Fig. 6 + S. Fig. 10 (HDAC1 [4]; log[inhibitor(M)] -9.19382): 101.477 and 97.552 | HDAC1 dose-response data (relative enzyme activity), Fig. 6 + S. Fig. 10 (HDAC1 [4]; log[inhibitor(M)] -9.89279): 101.081 and 96.9441 | HDAC1 dose-response data (relative enzyme activity), Fig. 6 + S. Fig. 10 (HDAC1 [4]; [7]): 100,220716* and 99,6623992* | HDAC2 dose-response data (relative enzyme activity), Fig. 6 + S. Fig. 10 (HDAC2 [5]; log[inhibitor(M)] -5): 3.067 and 2.914 | HDAC2 dose-response data (relative enzyme activity), Fig. 6 + S. Fig. 10 (HDAC2 [5]; log[inhibitor(M)] -5.69897): 11.3787 and 10.2695 | HDAC2 dose-response data (relative enzyme activity), Fig. 6 + S. Fig. 10 (HDAC2 [5]; log[inhibitor(M)] -7.79588): 90.7701 and 92.8679 | HDAC2 dose-response data (relative enzyme activity), Fig. 6 + S. Fig. 10 (HDAC2 [5]; [7]): 102,18881* and 100,790249* | Ki (HDAC2 [5]; resynthesized peptide in solution, Cheng-Prusoff, n = 2): 0.0238 ± 0.0001 µM | Ki (HDAC3/NCoR2 [6]): 0.0106 ± 0.0001 µM | HDAC3 dose-response data (relative enzyme activity), Fig. 6 + S. Fig. 10 (HDAC3/NCoR2 [6]; log[inhibitor(M)] -4.30103): 0.7368 and 0.5682 | HDAC3 dose-response data (relative enzyme activity), Fig. 6 + S. Fig. 10 (HDAC3/NCoR2 [6]; log[inhibitor(M)] -5): 1.408 and 1.481 | HDAC3 dose-response data (relative enzyme activity), Fig. 6 + S. Fig. 10 (HDAC3/NCoR2 [6]; log[inhibitor(M)] -5.69897): 5.267 and 4.363 | HDAC3 dose-response data (relative enzyme activity), Fig. 6 + S. Fig. 10 (HDAC3/NCoR2 [6]; log[inhibitor(M)] -6.39794): 16.4324 and 13.9407 | HDAC3 dose-response data (relative enzyme activity), Fig. 6 + S. Fig. 10 (HDAC3/NCoR2 [6]; log[inhibitor(M)] -7.09691): 38.5352 and 35.6199
